In one experiment the test system is Human breast cancer MX-1. In words: Antitumor effect on human breast cancer (MX-1) solid tumor implanted in mice. The conditions noted are these: total dose to inhibit tumor growth by 75%; s.c. implanted tumor in mice, tail vein injection, 5/w×2 or 2/w×2, measured 28 after start. The format is in vivo, mouse. How it is done:
(§1) Antitumor Effect on Human Gastric Cancer (MKN-45), Human Breast Cancer (MX-1) and Human Colon Cancer (LS180)
(§2) A MKN-45, MX-1 or LS180 solid tumor previously subcutaneously implanted in a nude mouse and grown was thinly cut, and its cubes with each side 3 mm were subcutaneously implanted in test mice. After the implantation, starting from the time when the tumor grew into 0.3 cm^3 or more, various dosages of a test compound were injected once a day for 5 consecutive days into the tail veins of the mice. The same injections were then made for further 5 days after 2 days of interval (treatment schedule: 5/w×2) or once every 3-4 days, four times in total (treatment schedule: 2/w×2). 28 after the start of the treatment, the length (L) and the breadth (W) of each of the tumors were measured, and its volume (V) was calculated (V=½×L×W^2).

Experiment [1] has as its system mouse leukemia cells (P388). Description: Growth inhibition activity on mouse leukemia cells (P388). The format is cell-based. As to conditions: 24 h with compound, Thiazoyl Blue, absorbance 550 nm, read-out: 50% inhibition concentration (IC50, nM) P-388. How it is done:
Growth Inhibition Activity on Mouse Leukemia Cells
10 μl of a medium containing a test compound was added, and culture was continued at 37° C. for further 24 hours under 5% CO2. 10 μl of 0.5% Thiazoyl Blue was added to the cultured medium, and incubation was made at 37° C. for 2 hours under 5% CO2 to carry out enzymatic reaction. 20% sodium dodecyl sulfate (SDS) was added to discontinue the reaction, and incubation was carried out at 37° C. for further 4 hours to dissolve the resulting dye, and absorbance at 550 nm was measured and compared with the control group.

Experiment [2] concerns human lung cancer cells (PC-13). In words: Growth inhibition activity on human lung cancer cells (PC-13). The conditions noted are these: PC-13 cells, 72 h with compound, Sulforhodamine B, absorbance 560 nm; read-out: 50% inhibition concentration (IC50, nM) PC-13. The format is cell-based. How it is done: (§3) Growth Inhibition Activity on Human Gastric Cancer Cells, Human Colon Cancer Cells and Human Lung Cancer Cells
(§4) 100 μl of a medium containing a test compound was added, and culture was continued at 37° C. for further 72 hours under 5% CO2. After completion of the culture, 50 μl of 50% trichloroacetic acid was added to the cultured medium, and the mixtures were held at 4° C. for 60 minutes to fix the cells. The cultured medium containing trichloroacetic acid was removed, and the wells were washed with tap water and dried. 50 μl of 0.4% Sulforhodamine B solution was added, and the mixtures were held at room temperature for 30 minutes to dye the cells. The dyeing solutions were removed, and the remaining dyeing solutions were washed away with 1% acetic acid. After complete removal of the acetic acid solution and drying, 200 μl of […] Tris solution was added and the mixtures were mixed well at room temperature for 1 hour or more to extract the dye. Absorbance of each well at 560 nm was measured, and the inhibition proportion in comparison with the group of no addition of any drug was calculated.

Experiment [3] relates to human gastric cancer cells (MKN-45). In words: Growth inhibition activity on human gastric cancer cells (MKN-45). The format is cell-based. As to conditions: MKN-45 cells, 72 h with compound, Sulforhodamine B, absorbance 560 nm; read-out: 50% inhibition concentration (IC50, nM) MKN-45. How it is done:
as §3, §4

For experiment [4], the system named is human colon cancer cells (DLD-1). In words: Growth inhibition activity on human colon cancer cells (DLD-1). As to conditions: DLD-1 cells, 72 h with compound, Sulforhodamine B, absorbance 560 nm; read-out: 50% inhibition concentration (IC50, nM) DLD-1. The experiment is classed as cell-based. How it is done:
as §3, §4

Experiment [5] concerns Human gastric cancer MKN-45. Description: Antitumor effect on human gastric cancer (MKN-45) solid tumor implanted in mice. The experiment is classed as in vivo, mouse. As to conditions: total dose to inhibit tumor growth by 75%; s.c. implanted tumor in mice, tail vein injection, 5/w×2 or 2/w×2, measured 28 after start. How it is done: as §1, §2
Another experiment has as its system Human colon cancer LS180. Description: Antitumor effect on human colon cancer (LS180) solid tumor implanted in mice. The experiment is classed as in vivo, mouse. The conditions noted are these: total dose to inhibit tumor growth by 75%; s.c. implanted tumor in mice, tail vein injection, 5/w×2 or 2/w×2, measured 28 after start. How it is done: as §1, §2

Some results are limits rather than exact numbers.

In the case of `O=C1c2c(c3c4ccc(O)cc4n([C@@H]4O[C@H](CO)[C@@H](O)[C@H](O)[C@H]4O)c3c3[nH]c4cc(O)ccc4c23)C(=O)N1NCc1sccc1CO` [Example 19], the “GID75 (mg/m^2 total) Human breast cancer MX-1” value in the experiment with Human breast cancer MX-1 is less than 30 mg/m^2. Further, the IC50 is 0.19 nM in experiment [1], 0.5 nM in experiment [2], 0.92 nM in experiment [3] and 1.3 nM in experiment [4].
With `O=C1c2c(c3c4ccc(O)cc4n([C@@H]4O[C@H](CO)[C@@H](O)[C@H](O)[C@H]4O)c3c3[nH]c4cc(O)ccc4c23)C(=O)N1NCc1ccncc1` [Example 24], the “GID75 (mg/m^2 total) Human breast cancer MX-1” value with Human breast cancer MX-1 is given as 27 mg/m^2. For the same compound, the IC50 in experiment [1] worked out at 0.48 nM; in experiment [2], 0.27 nM; in experiment [3], 0.71 nM; in experiment [4] it was 3.3 nM. In addition, the “GID75 (mg/m^2 total) Human gastric cancer MKN-45” value in experiment [5] worked out at 12 mg/m^2. For the same compound, in the experiment with Human colon cancer LS180, the “GID75 (mg/m^2 total) Human colic cancer LS180” value is recorded as 114 mg/m^2.
Turning to `O=C1c2c(c3c4ccc(O)cc4n([C@@H]4O[C@H](CO)[C@@H](O)[C@H](O)[C@H]4O)c3c3[nH]c4cc(O)ccc4c23)C(=O)N1NCc1csc(CO)c1` [Example 23], the “GID75 (mg/m^2 total) Human breast cancer MX-1” value in the experiment with Human breast cancer MX-1 is recorded as 19 mg/m^2. The IC50 came to 0.48 nM in experiment [1], 2.3 nM in experiment [2], 1.5 nM in experiment [3] and 8.9 nM in experiment [4].
Consider `O=C1c2c(c3c4ccc(O)cc4n(C4OC(CO)C(O)C(O)C4O)c3c3[nH]c4cc(O)ccc4c23)C(=O)N1NCc1cccc(O)c1` (stereo not drawn) [Control compound, reference compound], for which, in the experiment with Human breast cancer MX-1, the “GID75 (mg/m^2 total) Human breast cancer MX-1” value was 97 mg/m^2. Moreover, in experiment [5], the “GID75 (mg/m^2 total) Human gastric cancer MKN-45” value is given as 370 mg/m^2. For the same compound, the “GID75 (mg/m^2 total) Human colic cancer LS180” value in the experiment with Human colon cancer LS180 was found to be 1900 mg/m^2.
Turning to `O=C1c2c(c3c4ccc(O)cc4n([C@@H]4O[C@H](CO)[C@@H](O)[C@H](O)[C@H]4O)c3c3[nH]c4cc(O)ccc4c23)C(=O)N1NCc1ccsc1CO` [Example 18], the “GID75 (mg/m^2 total) Human breast cancer MX-1” value in the experiment with Human breast cancer MX-1 was determined as 16 mg/m^2. Besides, the IC50 stood at 0.43 nM in experiment [1], 0.3 nM in experiment [2], 0.66 nM in experiment [3] and 4.6 nM in experiment [4].
`O=C1c2c(c3c4ccc(O)cc4n([C@@H]4O[C@H](CO)[C@@H](O)[C@H](O)[C@H]4O)c3c3[nH]c4cc(O)ccc4c23)C(=O)N1NCc1ccc(CO)o1` [Example 22]: the IC50 in experiment [1] is 0.63 nM; in experiment [2] it was 0.58 nM; in experiment [3], 1.8 nM; in experiment [4] it was 1 nM.
For `O=C1c2c(c3c4cccc(O)c4n(C4OC(CO)C(O)C(O)C4O)c3c3[nH]c4c(O)cccc4c23)C(=O)N1NCc1cccc(O)c1` (stereo not drawn) [Control compound 2, reference compound], in that order: 6.5 nM, 48 nM, 12 nM and 76 nM.
For `O=C1c2c(c3c4ccc(O)cc4n([C@@H]4O[C@H](CO)[C@@H](O)[C@H](O)[C@H]4O)c3c3[nH]c4cc(O)ccc4c23)C(=O)N1NCc1cccc(CO)n1` [Example 15], the “GID75 (mg/m^2 total) Human breast cancer MX-1” value in the experiment on Human breast cancer MX-1 is less than 6 mg/m^2. Further, the IC50 in experiment [1] worked out at 0.5 nM; in experiment [2], 0.62 nM; in experiment [3], 2.1 nM; in experiment [4], 4.3 nM. For the same compound, the “GID75 (mg/m^2 total) Human gastric cancer MKN-45” value in experiment [5] was less than 90 mg/m^2. The “GID75 (mg/m^2 total) Human colic cancer LS180” value with Human colon cancer LS180 was determined as 400 mg/m^2.
In the case of `O=C1c2c(c3c4ccc(O)cc4n([C@@H]4O[C@H](CO)[C@@H](O)[C@H](O)[C@H]4O)c3c3[nH]c4cc(O)ccc4c23)C(=O)N1NCc1sc(CO)cc1CO` [Example 16], in the experiment with Human breast cancer MX-1, the “GID75 (mg/m^2 total) Human breast cancer MX-1” value was less than 36 mg/m^2. The IC50 came to 0.4 nM in experiment [1], 0.56 nM in experiment [2], 1.3 nM in experiment [3] and 4 nM in experiment [4].
For `O=C1c2c(c3c4ccc(O)cc4n([C@@H]4O[C@H](CO)[C@@H](O)[C@H](O)[C@H]4O)c3c3[nH]c4cc(O)ccc4c23)C(=O)N1NCc1cscc1CO` [Example 20], in that order: less than 30 mg/m^2, 0.87 nM, 0.67 nM, 0.92 nM and 1 nM.
As to `O=C1c2c(c3c4ccc(O)cc4n([C@@H]4O[C@H](CO)[C@@H](O)[C@H](O)[C@H]4O)c3c3[nH]c4cc(O)ccc4c23)C(=O)N1NCc1ccncc1CO` [Example 3], the “GID75 (mg/m^2 total) Human breast cancer MX-1” value in the experiment on Human breast cancer MX-1 was less than 12 mg/m^2. For the same compound, the IC50 in experiment [1] came out at 0.28 nM; in experiment [2] it was 0.22 nM; in experiment [3] it was 0.35 nM; in experiment [4], 0.91 nM. Moreover, the “GID75 (mg/m^2 total) Human gastric cancer MKN-45” value in experiment [5] was less than 30 mg/m^2. Besides, the “GID75 (mg/m^2 total) Human colic cancer LS180” value with Human colon cancer LS180 came out at 48 mg/m^2.

The record behind these values is patent US6703373B1, “Indolopyrrolocarbazole derivatives and antitumor agents” (Banyu Pharmaceutical Co., Ltd., priority 2002, dated 2004).
